In the NIST ThermoML archive (doi:10.1021/je100819f) one finds Normal melting temperature data, which are given here for one compound.

For this data set the following is noted: Crystal; DTA.

± gives the expanded uncertainty stated by the source.

In the case of `O=C1C=CC(=O)N1c1cc(F)c(Br)c(F)c1` [1-(4-bromo-3,5-difluorophenyl)-1H-pyrrole-2,5-dione], the Normal melting temperature stood at 197.5 ± 0.7 °C.
